Patent publication US7825253B2, “2-aminoquinoline derivatives” (Hoffmann-La Roche Inc., priority 2006, dated 2010)

Molecular target: T1, recombinant human 5-HT5A receptor (Homo sapiens, UniProt P47898)
T1 construct: expressed in transfected cells; host or cells: Human Embryonic Kidney-EBNA (HEK-EBNA) cells, transient cDNA expression; membranes
Assay: [3H]LSD radioligand binding assay
Conditions: not given
Experimental: A [^3H]LSD radioligand binding assay was used to determine the affinity of the compounds for the recombinant human 5-HT5A receptor, in membranes from transiently (cDNA) expressed 5-HT5A receptors in Human Embryonic Kidney-EBNA (HEK-EBNA) cells. Assay buffer consisted of Tris (50 mM) buffer containing 1 mM EGTA, 10 mM MgCl2 (pH 7.4) and 10 μM pargyline. The binding assay was carried out in 96-well-plates in the presence of [^3H]LSD (approximately 1 nM), approximately 2 μg/well of membrane protein, and 0.5 mg of Ysi-poly-l-lysine SPA beads in a final volume of 200 μl of buffer. Non-specific binding was defined using methiothepin 2 μM. Compounds were tested at 10 concentrations. All assays were conducted in duplicate and repeated at least two times. Assay plates were incubated for 120 min at room temperature before centrifugation. Bound ligand was determined using a Packard Topcount scintillation counter. IC50 values were calculated using a non-linear curve fitting program and Ki values calculated using the Cheng-Prussoff equation.

T1 sequence (P47898 whole entry): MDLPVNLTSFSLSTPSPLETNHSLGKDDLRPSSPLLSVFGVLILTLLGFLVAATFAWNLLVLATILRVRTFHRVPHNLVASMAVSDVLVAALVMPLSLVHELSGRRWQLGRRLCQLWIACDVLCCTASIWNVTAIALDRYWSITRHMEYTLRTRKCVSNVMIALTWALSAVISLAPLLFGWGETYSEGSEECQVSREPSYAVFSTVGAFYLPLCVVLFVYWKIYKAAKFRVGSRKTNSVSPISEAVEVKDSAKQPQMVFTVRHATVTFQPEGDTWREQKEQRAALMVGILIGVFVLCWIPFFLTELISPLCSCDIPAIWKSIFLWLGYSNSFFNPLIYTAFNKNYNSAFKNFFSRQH

Q: How did the “activity at the 5-HT5A receptor (in words)” value turn out when `CC(Nc1cccc2nc(Nc3cccc4c3OC(C)(C)C4)ccc12)c1cc(F)cc(F)c1` (single isomer, unassigned; (+)) [Example 158, (+)-N5-[1-(3,5-Difluoro-phenyl)-ethyl]-N2-(2,2-dimethyl-2,3-dihydro-benzofuran-7-yl)-quinoline-2,5-diamine] was run?
A: The value was “more active”.

Same assay, conditions: [3H]LSD approx. 1 nM; membranes from HEK-EBNA cells transiently expressing 5-HT5A; Ki from IC50 by Cheng-Prussoff

Q: With `Cc1ccc(CNc2ccc3c(NS(=O)(=O)c4ccc(F)cc4)cccc3n2)o1` [Example 42, N-{2-[(5-Methyl-furan-2-ylmethyl)-amino]-quinolin-5-yl}-4-fluorobenzenesulfonamide] as the compound, how does the Ki read?
A: Its Ki is 12.5 nM.

Q: How did the Ki turn out when `COc1ccccc1CNc1ccc2c(NCc3nccs3)cccc2n1` [Example 110, N2-(2-Methoxy-benzyl)-N5-thiazol-2-ylmethyl-quinoline-2,5-diamine] was run?
A: Its Ki is 16.8 nM.

Q: Which Ki does the source give for `Cc1ccc(CNc2ccc3c(NCc4ccc5[nH]cnc5c4)cccc3n2)o1` [Example 107, N5-(1H-Benzoimidazol-5-ylmethyl)-N2-(5-methyl-furan-2-ylmethyl)-quinoline-2,5-diamine] here?
A: The Ki was 3.92 nM.

Q: Which Ki does the source give for `Cc1ccc(CNc2ccc3c(NS(=O)(=O)c4cc(F)cc(F)c4)cccc3n2)o1` [Example 60, 3,5-Difluoro-N-{2-[(5-methyl-furan-2-ylmethyl)-amino]-quinolin-5-yl}-benzenesulfonamide] here?
A: The Ki was 21.7 nM.

Q: How did the Ki turn out when `CC1(C)Cc2cccc(Nc3ccc4c(NC5CCS(=O)(=O)c6ccccc65)cccc4n3)c2O1` (racemic) [Example 144, rac-N2-(2,2-Dimethyl-2,3-dihydro-benzofuran-7-yl)-N5-(1,1-dioxo-1l6-thiochroman-4-yl)-quinoline-2,5-diamine] was run?
A: Its Ki is 15.4 nM.

Q: How did the Ki turn out when `COc1ccccc1CNc1ccc2c(OCCS(=O)(=O)c3ccccc3)cccc2n1` [Example 84, [5-(2-Benzenesulfonyl-ethoxy)-quinolin-2-yl]-(2-methoxy-benzyl)-amine] was run?
A: The Ki was 88.3 nM.

Q: With `Cc1ccc(CNc2ccc3c(Nc4ccc(Cl)cc4)cccc3n2)o1` [Example 51, N5-(4-Chloro-phenyl)-N2-(5-methyl-furan-2-ylmethyl)-quinoline-2,5-diamine] as the compound, how does the Ki read?
A: The Ki was 9.09 nM.

Q: With `Cc1cc2cccc(Nc3ccc4c(Nc5cccc6[nH]ccc56)cccc4n3)c2o1` [Example 113, N5-(1H-Indol-4-yl)-N2-(2-methyl-benzofuran-7-yl)-quinoline-2,5-diamine] as the compound, how does the Ki read?
A: Its Ki is 20.6 nM.

Q: With `CC1(C)Cc2cccc(Nc3ccc4c(NS(=O)(=O)Nc5ccc(F)cc5)cccc4n3)c2O1` [Example 156, N-{2-[(2,2-dimethyl-2,3-dihydro-1-benzofuran-7-yl)amino]quinolin-5-yl}-N′-(4-fluorophenyl)sulfamide] as the compound, how does the Ki read?
A: Its Ki is 45.1 nM.

Q: Which Ki does the source give for `COc1ccccc1CNc1ccc2c(NCc3c[nH]nn3)cccc2n1` [Example 106, N2-(2-Methoxy-benzyl)-N5-(1H-[1,2,3]triazol-4-ylmethyl)-quinoline-2,5-diamine] here?
A: The Ki was 30.4 nM.

Q: `Cc1ccc(CNc2ccc3c(NC4CCS(=O)(=O)c5ccccc54)cccc3n2)o1` (racemic) [Example 143, rac-5-(1,1-Dioxo-1l6-thiochroman-4-yl)-N2-(5-methyl-furan-2-ylmethyl)-quinoline-2,5-diamine] was tested. Which Ki did it give?
A: Its Ki is 18.2 nM.

Q: With `Cc1ccc(CNc2ccc3c(NC4CCOc5ccccc54)cccc3n2)o1` (racemic) [Example 142, rac-N5-Chroman-4-yl-N2-(5-methyl-furan-2-ylmethyl)-quinoline-2,5-diamine] as the compound, how does the Ki read?
A: Its Ki is 37.1 nM.

Q: `Cc1ccc(CNc2ccc3c(NCc4cccc(S(N)(=O)=O)c4)cccc3n2)o1` [Example 35, 3-({2-[(5-Methyl-furan-2-ylmethyl)-amino]-quinolin-5-ylamino}-methyl)-benzenesulfonamide] was tested. Which Ki did it give?
A: Its Ki is 17 nM.

Q: `COc1ccccc1CNc1ccc2c(NCc3cccnc3)cccc2n1` [Example 1, N2-(2-Methoxy-benzyl)-N5-pyridin-3-ylmethyl-quinoline-2,5-diamine] was tested. Which Ki did it give?
A: The Ki was 8.65 nM.

Q: Which Ki does the source give for `COc1ccccc1CNc1ccc2c(NCc3cccc4[nH]ccc34)cccc2n1` [Example 102, N5-(1H-Indol-4-ylmethyl)-N2-(2-methoxy-benzyl)-quinoline-2,5-diamine] here?
A: The Ki was 6.41 nM.

Q: `CC(C)(C)c1cccc(Nc2ccc3c(NS(=O)(=O)c4cc(F)cc(F)c4)cccc3n2)c1` [Example 161, N-[2-(3-tert-Butyl-phenylamino)-quinolin-5-yl]-3,5-difluoro-benzenesulfonamide] was tested. Which Ki did it give?
A: Its Ki is 35.5 nM.

Q: `Cc1ccc(CNc2ccc3c(NS(=O)(=O)c4ccc(F)c(F)c4)cccc3n2)o1` [Example 74, 3,4-Difluoro-N-{2-[(5-methyl-furan-2-ylmethyl)-amino]-quinolin-5-yl}-benzenesulfonamide] was tested. Which Ki did it give?
A: Its Ki is 12.9 nM.

Q: How did the Ki turn out when `COc1cccc(CNc2cccc3nc(NCc4ccccc4OC)ccc23)c1` [Example 5, N5-(3-Methoxy-benzyl)-N2-(2-methoxy-benzyl)-quinoline-2,5-diamine] was run?
A: Its Ki is 9.7 nM.

Q: For `c1cc(CNc2ccc3c(NCc4cccc5[nH]ccc45)cccc3n2)c2c(c1)OCCO2` [Example 118, N2-(2,3-Dihydro-benzo[1,4]dioxin-5-ylmethyl)-N5-(1H-indol-4-ylmethyl)-quinoline-2,5-diamine], which Ki is on record?
A: The Ki was 5.66 nM.

Q: How did the Ki turn out when `COc1ccccc1CNc1ccc2c(CCc3cccnc3)cccc2n1` [Example 16, (2-Methoxy-benzyl)-[5-(2-pyridin-3-yl-ethyl)-quinolin-2-yl]-amine] was run?
A: The Ki was 32.6 nM.

Q: How did the Ki turn out when `Cc1nc(CNc2cccc3nc(NCc4ccc(C)o4)ccc23)c[nH]1` [Example 90, N2-(5-Methyl-furan-2-ylmethyl)-N5-(2-methyl-1H-imidazol-4-ylmethyl)-quinoline-2,5-diamine] was run?
A: Its Ki is 52.9 nM.

Q: Which Ki does the source give for `COCCOc1cccc(CNc2cccc3nc(NCc4ccc(C)o4)ccc23)c1` [Example 28, N5-[3-(2-Methoxy-ethoxy)-benzyl]-N2-(5-methyl-furan-2-ylmethyl)-quinoline-2,5-diamine] here?
A: Its Ki is 49.4 nM.

Q: `Cc1cc2cccc(Nc3ccc4c(NS(=O)(=O)c5cc(F)cc(F)c5)cccc4n3)c2o1` [Example 89, 3,5-Difluoro-N-[2-(2-methyl-benzofuran-7-ylamino)-quinolin-5-yl]-benzenesulfonamide] was tested. Which Ki did it give?
A: The Ki was 50.6 nM.

Q: `COc1ccccc1CNc1cccc2nc(NCc3ccc(C)o3)ccc12` [Example 13, N5-(2-Methoxy-benzyl)-N2-(5-methyl-furan-2-ylmethyl)-quinoline-2,5-diamine] was tested. Which Ki did it give?
A: Its Ki is 15.3 nM.

Q: Which Ki does the source give for `CC(Nc1cccc2nc(Nc3cccc4c3OC(C)(C)C4)ccc12)c1cc(F)cc(F)c1` (racemic) [Example 151, rac-N5-[1-(3,5-Difluoro-phenyl)-ethyl]-N2-(2,2-dimethyl-2,3-dihydro-benzofuran-7-yl)-quinoline-2,5-diamine] here?
A: The Ki was 4.74 nM.

Q: How did the Ki turn out when `O=S(=O)(Nc1cccc2nc(Nc3cccc(C4CC4)c3)ccc12)c1cc(F)cc(F)c1` [Example 159, N-[2-(3-Cyclopropyl-phenylamino)-quinolin-5-yl]-3,5-difluoro-benzenesulfonamide] was run?
A: The Ki was 28.3 nM.

Q: For `Cc1ccc(CNc2ccc3c(CNc4ccccc4)cccc3n2)o1` [Example 22, (5-Methyl-furan-2-ylmethyl)-(5-phenylaminomethyl-quinolin-2-yl)-amine], which Ki is on record?
A: Its Ki is 23.5 nM.

Q: With `CC(Nc1cccc2nc(Nc3cccc4c3OC(C)(C)C4)ccc12)c1cc(F)cc(F)c1` (single isomer, unassigned; (+)) [Example 158, (+)-N5-[1-(3,5-Difluoro-phenyl)-ethyl]-N2-(2,2-dimethyl-2,3-dihydro-benzofuran-7-yl)-quinoline-2,5-diamine] as the compound, how does the Ki read?
A: Its Ki is 3.1 nM.

Q: How did the Ki turn out when `COc1ccccc1CNc1ccc2c(NCc3cnc(C)[nH]3)cccc2n1` [Example 97, N2-(2-Methoxy-benzyl)-N5-(2-methyl-3H-imidazol-4-ylmethyl)-quinoline-2,5-diamine] was run?
A: Its Ki is 31 nM.

Q: Which Ki does the source give for `Cc1ccc(CNc2ccc3c(NCc4nc[nH]c4C)cccc3n2)o1` [Example 92, N2-(5-Methyl-furan-2-ylmethyl)-N5-(5-methyl-1H-imidazol-4-ylmethyl)-quinoline-2,5-diamine] here?
A: Its Ki is 14.4 nM.
